Where a SMILES comes first, the peptide text is derived from it. Bridges are numbered along the chain shown (N, C = ends). [ ]: non-standard residue; d: D form. The star is where a group is joined. Threoninol(2S,3R) = C[C@@H](O)[C@H](CO)N*
What was measured:
Adenosine receptor A2a = Adenosine receptor A2a (Homo sapiens, UniProt P29274); experiment: DRUGMATRIX: Adenosine A2A radioligand binding (ligand: […]); assay type: cell membranes, HEK293, Membrane; conditions: hek293; Not Active = under 50% inhibition at 10 µM
[1] = molecular target: Sigma non-opioid intracellular receptor 1 (Homo sapiens, UniProt Q99720); experiment: DRUGMATRIX: Sigma1 radioligand binding (ligand: [3H] Haloperidol); assay type: cell membranes, Jurkat, Membrane; conditions: jurkat; Not Active = under 50% inhibition at 10 µM
[2] = molecular target: T1, Cysteinyl leukotriene receptor 1 (Homo sapiens, UniProt Q9Y271); assay type: cell membranes, CHO-K1, Membrane; conditions: cho-k1; also: in other assays of this panel Not Active means under 50% inhibition at 10 µM
T1 sequence (Q9Y271 whole entry): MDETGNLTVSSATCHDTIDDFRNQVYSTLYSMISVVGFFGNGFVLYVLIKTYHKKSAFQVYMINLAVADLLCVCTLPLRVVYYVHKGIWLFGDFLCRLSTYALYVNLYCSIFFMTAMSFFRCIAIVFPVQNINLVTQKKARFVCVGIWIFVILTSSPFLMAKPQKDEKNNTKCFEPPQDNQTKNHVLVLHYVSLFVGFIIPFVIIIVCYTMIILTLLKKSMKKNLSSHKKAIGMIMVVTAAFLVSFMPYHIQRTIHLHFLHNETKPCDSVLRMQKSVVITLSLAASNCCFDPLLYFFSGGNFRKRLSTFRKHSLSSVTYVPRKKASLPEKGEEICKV

[3] = molecular target: Receptor tyrosine-protein kinase erbB-2 (Homo sapiens, UniProt P04626); experiment: biochemical; assay type: cell-based, Insect cells; conditions: insect cells;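 also: inhibition of HER2 kinase enzyme activity, measured with Poly(Glu:Tyr) as the phosphorylation substrate; in other assays of this panel Not Active means under 50% inhibition at 10 µM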
[4] = molecular target: cGMP-specific 3',5'-cyclic phosphodiesterase (Homo sapiens, UniProt O76074); experiment: DRUGMATRIX: Phosphodiesterase PDE5 enzyme inhibition (substrate: [3H]cGMP + cGMP); assay type: tissue-based; conditions: platelet; Not Active = under 50% inhibition at 10 µM
[5] = molecular target: T2, C-X-C chemokine receptor type 2 (Homo sapiens, UniProt P25025); assay type: cell membranes, Membrane; conditions: cho-k1; also: in other assays of this panel Not Active means under 50% inhibition at 10 µM
T2 sequence (P25025 whole entry): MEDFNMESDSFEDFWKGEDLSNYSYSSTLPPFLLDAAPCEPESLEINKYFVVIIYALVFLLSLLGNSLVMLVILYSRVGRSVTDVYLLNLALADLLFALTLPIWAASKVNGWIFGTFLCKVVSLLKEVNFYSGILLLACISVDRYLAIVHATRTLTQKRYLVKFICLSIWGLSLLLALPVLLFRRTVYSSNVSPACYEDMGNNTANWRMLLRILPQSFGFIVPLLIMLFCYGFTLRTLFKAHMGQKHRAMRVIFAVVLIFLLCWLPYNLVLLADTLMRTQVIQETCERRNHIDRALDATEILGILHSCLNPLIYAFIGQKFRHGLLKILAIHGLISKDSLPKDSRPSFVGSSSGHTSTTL

Carbonic anhydrase 2 = Carbonic anhydrase 2 (Homo sapiens, UniProt P00918); experiment: DRUGMATRIX: Carbonic Anhydrase II enzyme inhibition (substrate: 4-Nitrophenyl acetate (4-NPA)); assay type: tissue-based, Erythrocyte; conditions: erythrocyte; Not Active = under 50% inhibition at 10 µM

Receptor tyrosine-protein kinase erbB-2, sequence (P04626 whole entry): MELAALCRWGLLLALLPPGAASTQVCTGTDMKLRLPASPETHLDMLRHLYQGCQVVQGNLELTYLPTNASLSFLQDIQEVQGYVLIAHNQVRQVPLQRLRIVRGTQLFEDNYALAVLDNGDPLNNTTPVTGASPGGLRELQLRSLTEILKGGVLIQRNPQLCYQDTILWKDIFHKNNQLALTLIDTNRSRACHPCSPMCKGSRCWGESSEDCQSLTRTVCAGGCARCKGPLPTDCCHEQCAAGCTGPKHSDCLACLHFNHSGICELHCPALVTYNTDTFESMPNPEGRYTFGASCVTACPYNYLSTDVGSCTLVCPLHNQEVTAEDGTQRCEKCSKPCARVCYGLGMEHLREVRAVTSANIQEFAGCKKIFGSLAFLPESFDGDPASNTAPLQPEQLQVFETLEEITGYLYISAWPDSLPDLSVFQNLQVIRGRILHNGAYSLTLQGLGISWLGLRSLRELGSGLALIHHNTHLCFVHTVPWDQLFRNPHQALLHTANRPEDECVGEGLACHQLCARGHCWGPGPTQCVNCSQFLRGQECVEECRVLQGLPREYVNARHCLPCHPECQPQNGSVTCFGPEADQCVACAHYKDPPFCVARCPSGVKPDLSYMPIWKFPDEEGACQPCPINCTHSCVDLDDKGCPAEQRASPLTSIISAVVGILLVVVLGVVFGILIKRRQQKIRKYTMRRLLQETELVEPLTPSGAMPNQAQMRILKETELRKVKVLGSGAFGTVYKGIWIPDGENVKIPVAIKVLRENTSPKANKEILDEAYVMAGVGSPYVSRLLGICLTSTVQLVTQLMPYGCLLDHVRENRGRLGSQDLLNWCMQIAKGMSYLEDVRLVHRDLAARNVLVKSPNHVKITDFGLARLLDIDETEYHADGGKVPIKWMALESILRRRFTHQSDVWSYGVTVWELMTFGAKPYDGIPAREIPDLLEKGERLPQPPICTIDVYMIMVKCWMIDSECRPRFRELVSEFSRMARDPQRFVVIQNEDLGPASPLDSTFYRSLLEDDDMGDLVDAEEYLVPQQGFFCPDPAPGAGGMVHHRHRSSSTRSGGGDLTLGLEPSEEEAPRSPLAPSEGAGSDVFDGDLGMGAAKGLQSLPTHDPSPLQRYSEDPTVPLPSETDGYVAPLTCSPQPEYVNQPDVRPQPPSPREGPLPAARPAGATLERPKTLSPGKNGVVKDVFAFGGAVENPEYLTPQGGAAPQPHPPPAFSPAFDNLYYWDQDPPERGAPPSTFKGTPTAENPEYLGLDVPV
Sigma non-opioid intracellular receptor 1, sequence (Q99720 whole entry): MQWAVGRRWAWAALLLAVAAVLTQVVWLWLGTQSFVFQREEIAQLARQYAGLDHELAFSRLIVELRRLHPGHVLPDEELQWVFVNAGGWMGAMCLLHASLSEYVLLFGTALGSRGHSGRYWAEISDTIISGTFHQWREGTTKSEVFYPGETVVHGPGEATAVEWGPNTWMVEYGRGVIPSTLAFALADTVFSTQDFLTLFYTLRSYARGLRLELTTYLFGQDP
Adenosine receptor A2a, sequence (P29274 whole entry): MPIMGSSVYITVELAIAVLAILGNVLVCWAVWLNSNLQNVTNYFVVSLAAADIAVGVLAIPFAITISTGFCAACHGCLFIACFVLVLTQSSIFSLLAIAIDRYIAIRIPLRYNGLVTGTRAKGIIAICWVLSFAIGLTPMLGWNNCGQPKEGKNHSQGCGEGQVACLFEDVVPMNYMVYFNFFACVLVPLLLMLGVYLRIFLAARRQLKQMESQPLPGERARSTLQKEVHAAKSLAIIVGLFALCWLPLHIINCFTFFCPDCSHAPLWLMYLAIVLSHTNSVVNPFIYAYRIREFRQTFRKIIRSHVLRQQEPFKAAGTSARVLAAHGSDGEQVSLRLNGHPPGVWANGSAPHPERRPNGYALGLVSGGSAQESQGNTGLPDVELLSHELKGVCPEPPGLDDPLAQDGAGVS

COc1ccccc1C(=O)N1CCC(Cc2ccccc2)CC1
Not Active: IC50 (Adenosine receptor A2a) | IC50 [1] | IC50 [2] | IC50 [3] | IC50 [4] | IC50 [5] | IC50 (Carbonic anhydrase 2)

Cc1ccccc1C(=O)N1CCC(Cc2ccccc2)CC1
Not Active: IC50 (Adenosine receptor A2a) | IC50 [1] | IC50 [2] | IC50 [3] | IC50 [4] | IC50 [5] | IC50 (Carbonic anhydrase 2)

O=C1CC[C@H](N2C(=O)c3ccccc3C2=O)C(=O)N1
Not Active: IC50 (Adenosine receptor A2a) | IC50 [1] | IC50 [2] | IC50 [3] | IC50 [4] | IC50 [5] | IC50 (Carbonic anhydrase 2)

N=C(Nc1ccccc1)Nc1ccccc1
Not Active: IC50 (Adenosine receptor A2a) | IC50 [2] | IC50 [3] | IC50 [4] | IC50 [5] | IC50 (Carbonic anhydrase 2)

C[C@@H](O)[C@H](CO)NC(=O)[C@@H]1CSSC[C@H](NC(=O)[C@H](N)Cc2ccccc2)C(=O)N[C@@H](Cc2ccccc2)C(=O)N[C@H](Cc2c[nH]c3ccccc23)C(=O)N[C@@H](CCCCN)C(=O)N[C@@H]([C@@H](C)O)C(=O)N1 (H-[dF]CF[dW]KTC-{Threoninol(2S,3R)}; disulfide 2-7)
Not Active: IC50 (Adenosine receptor A2a) | IC50 [1] | IC50 [2] | IC50 [3] | IC50 [4] | IC50 [5] | IC50 (Carbonic anhydrase 2)

S=C=Nc1cccc2ccccc12 [1-NAPHTHYLISOTHIOCYANATE]
Not Active: IC50 (Adenosine receptor A2a) | IC50 [1] | IC50 [2] | IC50 [3] | IC50 [4] | IC50 [5] | IC50 (Carbonic anhydrase 2)

C[C@](O)(CS(=O)(=O)c1ccc(F)cc1)C(=O)Nc1ccc(C#N)c(C(F)(F)F)c1 [(R)-BICALUTAMIDE]
Not Active: IC50 (Adenosine receptor A2a) | IC50 [1] | IC50 [2] | IC50 [3] | IC50 [4] | IC50 [5] | IC50 (Carbonic anhydrase 2)

CCCC(=O)Nc1ccc(OCC(O)CNC(C)C)c(C(C)=O)c1 (stereo not given) [ACEBUTOLOL]
Not Active: IC50 (Adenosine receptor A2a) | IC50 [1] | IC50 [2] | IC50 [3] | IC50 [4] | IC50 [5] | IC50 (Carbonic anhydrase 2)

CC(=O)Nc1ccc(O)cc1 [ACETAMINOPHEN]
Not Active: IC50 (Adenosine receptor A2a) | IC50 [1] | IC50 [2] | IC50 [3] | IC50 [4] | IC50 [5] | IC50 (Carbonic anhydrase 2)

COc1cc2c(c3oc(=O)c4c(c13)CCC4=O)[C@@H]1C=CO[C@@H]1O2 [AFLATOXIN]
Not Active: IC50 (Adenosine receptor A2a) | Ki (Adenosine receptor A2a) | IC50 [1] | Ki [1] | IC50 [2] | Ki [2] | IC50 [3] | Ki [3] | IC50 [4] | Ki [4] | IC50 [5] | Ki [5] | IC50 (Carbonic anhydrase 2) | Ki (Carbonic anhydrase 2)

N=C(N)NC(=O)c1nc(Cl)c(N)nc1N [AMILORIDE]
Not Active: IC50 (Adenosine receptor A2a) | IC50 [1] | IC50 [2] | IC50 [3] | IC50 [4] | IC50 [5] | IC50 (Carbonic anhydrase 2)

Cc1cc(=O)n(-c2ccccc2)n1C [ANTIPYRINE]
Not Active: IC50 (Adenosine receptor A2a) | IC50 [1] | IC50 [2] | IC50 [3] | IC50 [4] | IC50 [5] | IC50 (Carbonic anhydrase 2)

CN1C(=O)COc2c(C(=O)NC3CN4CCC3CC4)cc(Cl)cc21 (stereo not given) [AZASETRON]
Not Active: IC50 (Adenosine receptor A2a) | IC50 [1] | IC50 [2] | IC50 [3] | IC50 [4] | IC50 [5] | IC50 (Carbonic anhydrase 2)

C[C@H]1C[C@H]2[C@@H]3CCC4=CC(=O)C=C[C@]4(C)[C@@]3(Cl)[C@@H](O)C[C@]2(C)[C@@]1(O)C(=O)CO [BECLOMETHASONE]
Not Active: IC50 (Adenosine receptor A2a) | IC50 [1] | IC50 [2] | IC50 [3] | IC50 [4] | IC50 [5] | IC50 (Carbonic anhydrase 2)

CCOC(=O)[C@H](CCc1ccccc1)N[C@H]1CCc2ccccc2N(CC(=O)O)C1=O [BENAZEPRIL]
Not Active: IC50 (Adenosine receptor A2a) | IC50 [1] | IC50 [2] | IC50 [3] | IC50 [4] | IC50 [5] | IC50 (Carbonic anhydrase 2)

Nc1c(CC(=O)O)cccc1C(=O)c1ccc(Br)cc1 [BROMFENAC]
Not Active: IC50 (Adenosine receptor A2a) | IC50 [1] | IC50 [2] | IC50 [3] | IC50 [4] | IC50 [5] | IC50 (Carbonic anhydrase 2)

CCCCN1CCCCC1C(=O)Nc1c(C)cccc1C.Cl (stereo not given) [BUPIVACAINE HYDROCHLORIDE]
Not Active: IC50 (Adenosine receptor A2a) | IC50 [1] | IC50 [2] | IC50 [3] | IC50 [4] | IC50 [5] | IC50 (Carbonic anhydrase 2)

O=C1CC2(CCCC2)CC(=O)N1CCCCN1CCN(c2ncccn2)CC1 [BUSPIRONE]
Not Active: IC50 (Adenosine receptor A2a) | IC50 [2] | IC50 [3] | IC50 [4] | IC50 [5] | IC50 (Carbonic anhydrase 2)

C[C@@]12C(=O)OC(=O)[C@]1(C)[C@H]1CC[C@@H]2O1 [CANTHARIDIN]
Not Active: IC50 (Adenosine receptor A2a) | IC50 [1] | IC50 [2] | IC50 [3] | IC50 [4] | IC50 [5] | IC50 (Carbonic anhydrase 2)

O=NN(CCCl)C(=O)NCCCl [CARMUSTINE]
Not Active: IC50 (Adenosine receptor A2a) | IC50 [1] | IC50 [2] | IC50 [3] | IC50 [4] | IC50 [5] | IC50 (Carbonic anhydrase 2)

CC1=C(C(=O)O)N2C(=O)[C@@H](NC(=O)[C@H](N)c3ccccc3)[C@H]2SC1 [CEPHALEXIN ANHYDROUS]
Not Active: IC50 (Adenosine receptor A2a) | IC50 [1] | IC50 [2] | IC50 [3] | IC50 [4] | IC50 [5] | IC50 (Carbonic anhydrase 2)

O=C(N[C@H](CO)[C@H](O)c1ccc([N+](=O)[O-])cc1)C(Cl)Cl [CHLORAMPHENICOL]
Not Active: IC50 (Adenosine receptor A2a) | IC50 [1] | IC50 [2] | IC50 [3] | IC50 [4] | IC50 [5] | IC50 (Carbonic anhydrase 2)

ClC(Cl)Cl [CHLOROFORM]
Not Active: IC50 (Adenosine receptor A2a) | IC50 [1] | IC50 [2] | IC50 [3] | IC50 [4] | IC50 [5] | IC50 (Carbonic anhydrase 2)

C=C1CC[C@H](O)C/C1=C/C=C1\CCC[C@]2(C)[C@@H]([C@H](C)CCCC(C)C)CC[C@@H]12 [CHOLECALCIFEROL]
Not Active: IC50 (Adenosine receptor A2a) | IC50 [1] | IC50 [2] | IC50 [3] | IC50 [4] | IC50 [5] | IC50 (Carbonic anhydrase 2)

C[N+](C)(C)CCO.[Cl-] [CHOLINE CHLORIDE]
Not Active: IC50 (Adenosine receptor A2a) | IC50 [1] | IC50 [2] | IC50 [3] | IC50 [4] | IC50 [5] | IC50 (Carbonic anhydrase 2)

CCOC(=O)C(C)(C)Oc1ccc(Cl)cc1 [CLOFIBRATE]
Not Active: IC50 (Adenosine receptor A2a) | IC50 [1] | IC50 [2] | IC50 [3] | IC50 [4] | IC50 [5] | IC50 (Carbonic anhydrase 2)

CC(=O)OCC(=O)[C@@]1(O)CC[C@H]2[C@@H]3CCC4=CC(=O)CC[C@]4(C)[C@H]3C(=O)C[C@@]21C [CORTISONE ACETATE]
Not Active: IC50 (Adenosine receptor A2a) | IC50 [1] | IC50 [2] | IC50 [3] | IC50 [4] | IC50 [5] | IC50 (Carbonic anhydrase 2)

O=c1ccc2ccccc2o1 [COUMARIN]
Not Active: IC50 (Adenosine receptor A2a) | IC50 [1] | IC50 [2] | IC50 [3] | IC50 [4] | IC50 [5] | IC50 (Carbonic anhydrase 2)

COc1ccc2cc([C@H](C)C(=O)O)ccc2c1 [NAPROXEN]
Not Active: IC50 (Adenosine receptor A2a) | IC50 [1] | IC50 [2] | IC50 [3] | IC50 [5] | IC50 (Carbonic anhydrase 2)

O=C(C1CCCCC1)N1CC(=O)N2CCc3ccccc3C2C1 (stereo not given) [PRAZIQUANTEL]
Not Active: IC50 (Adenosine receptor A2a) | IC50 [2] | IC50 [3] | IC50 [4] | IC50 [5] | IC50 (Carbonic anhydrase 2)

CADMIUM DICHLORIDE
Not Active: IC50 (Adenosine receptor A2a) | Ki (Adenosine receptor A2a) | IC50 [1] | Ki [1] | IC50 [2] | Ki [2] | IC50 [4] | Ki [4] | IC50 [5] | Ki [5] | IC50 (Carbonic anhydrase 2) | Ki (Carbonic anhydrase 2)

— ChEMBL document CHEMBL1909046, “DrugMatrix in vitro pharmacology data”
